Literature values, collected in patent US20110290909A1, “MULTI-COMPONENT INSECT ATTRACTANT” (priority 2006, published 2011).

Assays:
male melon flies = conditions: cue lure compared with raspberry ketone
male melon fruit flies = conditions: in vivo

Structure (SMILES) | effects on mating success (male melon flies) | effectiveness as chemical attractant for male melon fruit flies (male melon fruit flies)
CC(=O)CCc1ccc(OC(C)=O)cc1 [cue lure] | similar, short-lasting effects | 
CC(=O)CCc1ccc(O)cc1 [raspberry ketone] | similar, short-lasting effects | very effective chemical attractant
